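Compound exposure: 48 hours, 5 concentrations, 96-well plates. GI50 marks 50% less growth.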 Active and inactive are the calls of the source. Rule as the data show it: active = GI50 up to about 1.1 µM and inactive = higher.
Key:
Test in all cases: NCI anticancer screen, dose series, 48 h
786-0 = test system: 786-0
ACHN = test system: ACHN
HL-60 = test system: HL-60
HOP-62 = test system: HOP-62
HOP-92 = test system: HOP-92
IGROV-1 = test system: IGROV-1
K562 = test system: K562
M14 = test system: M14
MCF7 = test system: MCF7
MOLT-4 = test system: MOLT-4
Malme-3M = test system: Malme-3M
NCI-H460 = test system: NCI-H460
NCI-H522 = test system: NCI-H522
RXF 393 = test system: RXF 393
SF-539 = test system: SF-539
SNB-75 = test system: SNB-75
SR = test system: SR
UACC-62 = test system: UACC-62
UO-31 = test system: UO-31

SMILES	GI50 (786-0)	GI50 (ACHN)	GI50 (HL-60)	GI50 (HOP-62)	GI50 (HOP-92)	GI50 (IGROV-1)	GI50 (K562)	GI50 (M14)	GI50 (MCF7)	GI50 (MOLT-4)	GI50 (Malme-3M)	GI50 (NCI-H460)	GI50 (NCI-H522)	GI50 (RXF 393)	GI50 (SF-539)	GI50 (SNB-75)	GI50 (SR)	GI50 (UACC-62)	GI50 (UO-31)
Nc1ncnc2c1nc(Cl)n2C1OC(CO)C(O)C1O (centres undefined)	1.79 µM (inactive)	0.489 µM (active)	0.181 µM (active)	8.28 µM (inactive)	9.08 µM (inactive)	0.653 µM (active)	0.347 µM (active)	0.9 µM (active)	0.562 µM (active)	0.474 µM (active)	27.2 µM (inactive)	0.414 µM (active)	0.546 µM (active)	0.213 µM (active)	4.69 µM (inactive)	1.49 µM (inactive)	1.13 µM (inactive)	0.966 µM (active)	0.906 µM (active)
O=C1/C(=C\c2ccc([N+](=O)[O-])cc2)CS(=O)(=O)C/C1=C/c1ccc([N+](=O)[O-])cc1	0.149 µM (active)	0.705 µM (active)	0.324 µM (active)	1.23 µM (inactive)	1.91 µM (inactive)	0.641 µM (active)	–	0.74 µM (active)	0.303 µM (active)	–	0.41 µM (active)	0.515 µM (active)	0.277 µM (active)	0.482 µM (active)	0.189 µM (active)	15.5 µM (inactive)	0.03 µM (active)	0.198 µM (active)	0.176 µM (active)
CC1=NN=C(C)C1/N=N/c1ccc2[nH]c(C)nc2c1	34.4 µM (inactive)	7.46 µM (inactive)	10.8 µM (inactive)	26.4 µM (inactive)	14.8 µM (inactive)	5.62 µM (inactive)	> 69.2 µM (inactive)	23.1 µM (inactive)	28.7 µM (inactive)	13.7 µM (inactive)	6.85 µM (inactive)	11 µM (inactive)	6.95 µM (inactive)	5.16 µM (inactive)	26.9 µM (inactive)	22.9 µM (inactive)	5.41 µM (inactive)	14.9 µM (inactive)	19.2 µM (inactive)
COC(CNC(=O)C(C)NC(=O)/C=C/c1ccccc1)OC (centres undefined)	> 100 µM (inactive)	> 100 µM (inactive)	> 100 µM (inactive)	–	> 100 µM (inactive)	> 100 µM (inactive)	> 100 µM (inactive)	> 100 µM (inactive)	> 100 µM (inactive)	> 100 µM (inactive)	> 100 µM (inactive)	> 100 µM (inactive)	62.1 µM (inactive)	> 100 µM (inactive)	> 100 µM (inactive)	> 100 µM (inactive)	> 100 µM (inactive)	> 100 µM (inactive)	> 100 µM (inactive)
O=C(O)c1cccc(S(=O)(=O)NN2C(=O)CSC2c2ccccc2)c1 (centres undefined)	> 100 µM (inactive)	> 100 µM (inactive)	4.4 µM (inactive)	> 100 µM (inactive)	> 100 µM (inactive)	> 100 µM (inactive)	> 100 µM (inactive)	> 100 µM (inactive)	> 100 µM (inactive)	> 100 µM (inactive)	> 100 µM (inactive)	> 100 µM (inactive)	27.6 µM (inactive)	> 100 µM (inactive)	> 100 µM (inactive)	> 100 µM (inactive)	32.9 µM (inactive)	> 100 µM (inactive)	> 100 µM (inactive)
NC1=NN(c2ccccc2)C2(O)c3ccncc3C3=NN(c4ccccc4)C(=O)C132 (centres undefined)	> 100 µM (inactive)	> 100 µM (inactive)	> 100 µM (inactive)	–	> 100 µM (inactive)	> 100 µM (inactive)	> 100 µM (inactive)	> 100 µM (inactive)	> 100 µM (inactive)	> 100 µM (inactive)	63.1 µM (inactive)	> 100 µM (inactive)	> 100 µM (inactive)	> 100 µM (inactive)	> 100 µM (inactive)	> 100 µM (inactive)	> 100 µM (inactive)	> 100 µM (inactive)	> 100 µM (inactive)
CC1=NC(=Cc2cc(Br)cc(Br)c2)C(=O)N1n1c(-c2ccccc2)nc2ccccc2c1=O	> 100 µM (inactive)	> 100 µM (inactive)	> 100 µM (inactive)	> 100 µM (inactive)	> 100 µM (inactive)	> 100 µM (inactive)	> 100 µM (inactive)	> 100 µM (inactive)	> 100 µM (inactive)	> 100 µM (inactive)	> 100 µM (inactive)	> 100 µM (inactive)	> 100 µM (inactive)	> 100 µM (inactive)	> 100 µM (inactive)	> 100 µM (inactive)	55.2 µM (inactive)	> 100 µM (inactive)	> 100 µM (inactive)
O=S1(=O)c2cnccc2N=C(NCc2ccccc2)N1c1ccccc1	> 100 µM (inactive)	36.7 µM (inactive)	41.4 µM (inactive)	> 100 µM (inactive)	57.5 µM (inactive)	55.1 µM (inactive)	> 100 µM (inactive)	> 100 µM (inactive)	54.5 µM (inactive)	34.9 µM (inactive)	> 100 µM (inactive)	49.7 µM (inactive)	42.1 µM (inactive)	> 100 µM (inactive)	> 100 µM (inactive)	69.5 µM (inactive)	58.6 µM (inactive)	46.7 µM (inactive)	> 100 µM (inactive)
O=C(O)c1cc2ccccc2c(O)c1O	14.3 µM (inactive)	16.9 µM (inactive)	19.4 µM (inactive)	18.9 µM (inactive)	> 40.1 µM (inactive)	20.2 µM (inactive)	8.09 µM (inactive)	4.79 µM (inactive)	13.5 µM (inactive)	27.5 µM (inactive)	1.8 µM (inactive)	22.9 µM (inactive)	15.1 µM (inactive)	17.3 µM (inactive)	22.8 µM (inactive)	17.9 µM (inactive)	> 45.4 µM (inactive)	5.98 µM (inactive)	20.5 µM (inactive)
COc1ccc(/C=C2\CCC(C)C3=C2NC(=S)NC3c2ccc(OC)c(OC)c2)cc1OC (centres undefined)	22.3 µM (inactive)	24.3 µM (inactive)	3.6 µM (inactive)	> 100 µM (inactive)	36.1 µM (inactive)	13.6 µM (inactive)	3.99 µM (inactive)	19.5 µM (inactive)	14.9 µM (inactive)	4.99 µM (inactive)	> 10 µM (inactive)	41.8 µM (inactive)	> 100 µM (inactive)	> 10 µM (inactive)	27.2 µM (inactive)	> 100 µM (inactive)	2.65 µM (inactive)	20.2 µM (inactive)	12.6 µM (inactive)
Nc1[nH]c(=S)[nH]c(=O)c1/N=N/c1c(Br)cc(S(N)(=O)=O)cc1Br	> 100 µM (inactive)	> 100 µM (inactive)	> 100 µM (inactive)	> 100 µM (inactive)	> 100 µM (inactive)	> 100 µM (inactive)	> 100 µM (inactive)	> 100 µM (inactive)	> 100 µM (inactive)	> 100 µM (inactive)	> 100 µM (inactive)	> 100 µM (inactive)	> 100 µM (inactive)	> 100 µM (inactive)	> 100 µM (inactive)	35.7 µM (inactive)	> 100 µM (inactive)	> 100 µM (inactive)	> 100 µM (inactive)
O=C1C(N2CCCC2)=CC(=O)c2c(O)c(N3CCCC3)c(Cl)c(O)c21	> 10 µM (inactive)	> 10 µM (inactive)	> 10 µM (inactive)	> 10 µM (inactive)	> 10 µM (inactive)	> 10 µM (inactive)	> 10 µM (inactive)	> 10 µM (inactive)	> 10 µM (inactive)	> 10 µM (inactive)	> 10 µM (inactive)	> 10 µM (inactive)	> 10 µM (inactive)	> 10 µM (inactive)	> 10 µM (inactive)	> 10 µM (inactive)	> 10 µM (inactive)	> 10 µM (inactive)	> 10 µM (inactive)
Cc1cccc(C2ON=C(c3ccccc3)N2C23CC4CC(CC(C4)C2)C3)c1 (centres undefined)	> 10 µM (inactive)	> 10 µM (inactive)	> 10 µM (inactive)	> 10 µM (inactive)	> 10 µM (inactive)	> 10 µM (inactive)	> 10 µM (inactive)	> 10 µM (inactive)	3.6 µM (inactive)	> 10 µM (inactive)	> 10 µM (inactive)	> 10 µM (inactive)	> 10 µM (inactive)	> 10 µM (inactive)	> 10 µM (inactive)	7.28 µM (inactive)	> 10 µM (inactive)	> 10 µM (inactive)	–
OC1c2ccccc2CC12Cc1ccccc1C2 (centres undefined)	> 100 µM (inactive)	> 100 µM (inactive)	74.1 µM (inactive)	> 100 µM (inactive)	64 µM (inactive)	> 100 µM (inactive)	72.4 µM (inactive)	> 100 µM (inactive)	> 100 µM (inactive)	24.5 µM (inactive)	92.9 µM (inactive)	> 100 µM (inactive)	62.5 µM (inactive)	48.3 µM (inactive)	> 100 µM (inactive)	61.4 µM (inactive)	38.5 µM (inactive)	–	94.2 µM (inactive)
COc1ccc(CNC(=O)[C@H](Cc2ccc(O)cn2)NC(C)=O)cc1OC	> 100 µM (inactive)	> 100 µM (inactive)	> 100 µM (inactive)	> 100 µM (inactive)	> 100 µM (inactive)	> 100 µM (inactive)	> 100 µM (inactive)	> 100 µM (inactive)	> 100 µM (inactive)	> 96.8 µM (inactive)	> 100 µM (inactive)	> 100 µM (inactive)	> 93.5 µM (inactive)	> 100 µM (inactive)	> 100 µM (inactive)	> 100 µM (inactive)	> 100 µM (inactive)	> 100 µM (inactive)	> 100 µM (inactive)

— ChEMBL document CHEMBL1201862, “PubChem BioAssay data set” (2004)
